{"source": "patent US20250352508A1", "about": "“PREVENTION AND TREATMENT OF POST-ACUTE INFECTION SYNDROMES” (InflammX Therapeutics, Inc., priority 2024, published 2025)", "key": {"[1]": {"target": "gap junctions (Homo sapiens, UniProt P08034)", "sequence (P08034 whole entry)": "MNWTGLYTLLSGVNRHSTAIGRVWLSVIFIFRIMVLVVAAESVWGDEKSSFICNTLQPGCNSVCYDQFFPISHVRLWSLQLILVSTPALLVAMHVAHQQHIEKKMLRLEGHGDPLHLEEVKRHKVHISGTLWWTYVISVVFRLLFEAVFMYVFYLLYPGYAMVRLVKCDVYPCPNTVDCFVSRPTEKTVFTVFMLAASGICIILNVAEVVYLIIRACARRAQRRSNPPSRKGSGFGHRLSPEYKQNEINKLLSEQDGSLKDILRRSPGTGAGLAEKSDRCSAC", "set-up": "dose or concentration left out as unconfirmed", "conditions": "cited from earlier work"}, "[2]": {"tested_on": "Cx43 hemichannel", "conditions": "glioma cells; read-out: IC50 (half maximal inhibitory concentration) for the inhibition of ATP release; cited from earlier work"}, "[3]": {"target": "gap junction (Homo sapiens, UniProt P17302)", "sequence (P17302 whole entry)": "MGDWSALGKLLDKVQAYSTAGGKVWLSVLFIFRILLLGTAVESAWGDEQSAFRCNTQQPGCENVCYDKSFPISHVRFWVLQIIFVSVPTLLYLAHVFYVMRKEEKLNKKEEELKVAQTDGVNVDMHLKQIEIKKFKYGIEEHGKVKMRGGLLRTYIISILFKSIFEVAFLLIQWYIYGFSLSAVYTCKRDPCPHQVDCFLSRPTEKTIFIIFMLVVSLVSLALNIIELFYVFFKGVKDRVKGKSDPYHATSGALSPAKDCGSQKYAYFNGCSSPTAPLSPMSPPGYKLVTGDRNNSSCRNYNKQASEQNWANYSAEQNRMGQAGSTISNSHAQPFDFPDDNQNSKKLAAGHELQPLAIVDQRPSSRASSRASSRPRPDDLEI", "conditions": "cited from earlier work"}, "[4]": {"target": "Panx1 channel (Homo sapiens, UniProt Q96RD7)", "sequence (Q96RD7 whole entry)": "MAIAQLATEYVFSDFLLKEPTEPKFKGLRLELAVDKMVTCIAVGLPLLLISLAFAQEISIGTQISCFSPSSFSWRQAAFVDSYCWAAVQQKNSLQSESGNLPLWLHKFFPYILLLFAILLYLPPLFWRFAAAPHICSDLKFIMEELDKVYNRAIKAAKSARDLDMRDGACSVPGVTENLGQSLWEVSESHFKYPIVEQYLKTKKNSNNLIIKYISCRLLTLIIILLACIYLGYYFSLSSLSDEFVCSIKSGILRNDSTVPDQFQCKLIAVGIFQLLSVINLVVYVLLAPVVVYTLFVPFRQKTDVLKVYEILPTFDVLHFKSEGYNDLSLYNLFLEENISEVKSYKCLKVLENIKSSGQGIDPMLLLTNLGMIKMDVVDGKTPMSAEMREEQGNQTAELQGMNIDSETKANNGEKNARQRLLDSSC", "conditions": "cited from earlier work"}, "[5]": {"tested_on": "AIM2 inflammasome", "conditions": "cited from earlier work"}, "[6]": {"tested_on": "NLRC4 inflammasome", "conditions": "cited from earlier work"}, "[7]": {"target": "NLRP3 inflammasome (Homo sapiens, UniProt Q96P20)", "sequence (Q96P20 whole entry)": "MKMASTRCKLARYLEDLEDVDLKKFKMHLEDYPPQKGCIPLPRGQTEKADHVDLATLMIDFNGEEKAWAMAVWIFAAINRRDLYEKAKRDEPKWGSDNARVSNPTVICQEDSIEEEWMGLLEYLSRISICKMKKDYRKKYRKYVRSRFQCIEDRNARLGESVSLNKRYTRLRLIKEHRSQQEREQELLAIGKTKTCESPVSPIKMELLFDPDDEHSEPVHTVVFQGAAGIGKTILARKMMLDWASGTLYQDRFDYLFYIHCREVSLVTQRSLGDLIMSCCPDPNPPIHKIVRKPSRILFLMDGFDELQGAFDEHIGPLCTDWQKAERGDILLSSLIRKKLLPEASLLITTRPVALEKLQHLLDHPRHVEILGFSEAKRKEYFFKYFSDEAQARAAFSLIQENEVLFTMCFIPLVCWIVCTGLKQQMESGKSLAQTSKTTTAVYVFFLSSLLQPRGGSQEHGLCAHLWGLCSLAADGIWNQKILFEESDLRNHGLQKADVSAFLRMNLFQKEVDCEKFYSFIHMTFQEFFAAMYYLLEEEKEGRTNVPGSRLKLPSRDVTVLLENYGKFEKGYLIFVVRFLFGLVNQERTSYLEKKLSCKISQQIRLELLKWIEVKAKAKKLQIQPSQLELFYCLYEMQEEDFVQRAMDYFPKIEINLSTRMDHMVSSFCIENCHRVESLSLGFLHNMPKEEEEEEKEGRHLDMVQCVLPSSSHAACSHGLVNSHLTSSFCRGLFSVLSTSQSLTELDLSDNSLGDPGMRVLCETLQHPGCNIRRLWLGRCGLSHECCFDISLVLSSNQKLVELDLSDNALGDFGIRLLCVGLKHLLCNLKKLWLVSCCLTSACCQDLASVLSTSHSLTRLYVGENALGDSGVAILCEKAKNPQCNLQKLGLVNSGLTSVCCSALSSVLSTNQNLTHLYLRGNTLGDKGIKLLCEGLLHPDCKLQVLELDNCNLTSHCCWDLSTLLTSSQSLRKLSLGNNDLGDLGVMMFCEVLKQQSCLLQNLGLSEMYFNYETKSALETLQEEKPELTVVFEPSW", "conditions": "cited from earlier work"}, "[8]": {"assay": "Pharmacokinetics of tonabersat after single and multiple dosing, 240 to 400 mg, fasted and fed (MAD and DDI parts)", "assay_type": "in vivo, human", "conditions": "for AUC(0-inf) / half-life / Tmax: human, in vivo, oral; for AUC(0-inf): 320 mg; for half-life: read-out: geometric mean t1/2; for Tmax: read-out: median tmax", "text": "In some embodiments, a connexin hemichannel modulator (e.g., a connexin 43 hemichannel modulator) is provided in an amount to achieve and/or to maintain a steady state amount over a desired period of time, including some or part of a dosing regimen for use in addressing one or more signs or symptom of a post-acute infection syndrome, disorder, disease or condition. In some embodiments, the connexin hemichannel modulator (e.g., a connexin 43 hemichannel modulator) is a compound according to Formula I. In some embodiments, the connexin hemichannel modulator (e.g., a connexin 43 hemichannel modulator) is a compound according to Formula II. […] There was no evidence of time- or dose-related changes in systemic exposure of tonabersat. For a drug to show no change in its pharmacokinetic behavior on chronic dosing, the steady-state accumulation ratio (Rs) should equal unity. […] After both single and multiple dosing, Cmax and AUC increased with increasing dose in a dose-proportional manner across the dose range studied. […] Therefore, total exposure (extent of absorption) was not affected by food administration, whereas the rate of drug absorption was increased in the presence of food. […] The half-life was not affected by fed conditions."}, "[9]": {"assay": "Pharmacokinetics of tonabersat after single and repeat oral dosing, 40 and 80 mg once daily", "assay_type": "in vivo, human", "conditions": "for half-life: human, plasma", "text": "In some embodiments, a connexin hemichannel modulator (e.g., a connexin 43 hemichannel modulator) is provided in an amount to achieve and/or to maintain a steady state amount over a desired period of time, including some or part of a dosing regimen for use in addressing one or more signs or symptom of a post-acute infection syndrome, disorder, disease or condition. In some embodiments, the connexin hemichannel modulator (e.g., a connexin 43 hemichannel modulator) is a compound according to Formula I. In some embodiments, the connexin hemichannel modulator (e.g., a connexin 43 hemichannel modulator) is a compound according to Formula II."}}, "note": "Where two headings read alike, the source gives them in different places. Where a SMILES comes first, the peptide text is derived from it."}
{"compound": "GHGDPLHLEEVKC [^32Gap24]", "values": [{"measurement": "effect on gap junctions", "setting": "[1]", "result": "without affecting"}]}
{"compound": "CC[C@H](C)[C@H](NC(=O)[C@H](CCC(=O)O)NC(=O)[C@@H](NC(=O)[C@H](CCC(N)=O)NC(=O)[C@H](CCCCN)NC(=O)[C@H](CCCNC(=N)N)NC(=O)[C@H](CCCNC(=N)N)NC(=O)[C@H](CCCNC(=N)N)NC(=O)[C@H](CCC(N)=O)NC(=O)[C@H](CCCNC(=N)N)NC(=O)[C@H](CCCNC(=N)N)NC(=O)[C@H](CCCCN)NC(=O)[C@H](CCCCN)NC(=O)[C@H](CCCNC(=N)N)NC(=O)CNC(=O)[C@@H](N)Cc1ccc(O)cc1)[C@@H](C)CC)C(=O)N[C@@H](CCCCN)C(=O)N[C@@H](CCCCN)C(=O)N[C@@H](Cc1ccccc1)C(=O)N[C@@H](CCCCN)C(=O)O", "note": "[TAT-^43Gap19] (H-YGRKKRRQRRRKQIEIKKFK-OH; N-terminus and C-terminus assumed)", "values": [{"measurement": "IC50", "setting": "[2]", "result": 7, "unit": "µM"}]}
{"compound": "CC[C@H](C)[C@H](NC(=O)[C@H](CCC(=O)O)NC(=O)[C@@H](NC(=O)[C@H](CCC(N)=O)NC(=O)[C@@H](N)CCCCN)[C@@H](C)CC)C(=O)N[C@@H](CCCCN)C(=O)N[C@@H](CCCCN)C(=O)N[C@@H](Cc1ccccc1)C(=O)N[C@@H](CCCCN)C(=O)O", "note": "[^43Gap19] (H-KQIEIKKFK-OH; N-terminus and C-terminus assumed)", "values": [{"measurement": "effect on gap junction activity (selectivity)", "setting": "[3]", "result": "does not affect"}, {"measurement": "effect on Panx1 channel activity (selectivity)", "setting": "[4]", "result": "does not affect"}, {"measurement": "IC50", "setting": "[2]", "result": 47, "unit": "µM"}]}
{"compound": "CC(C)C[C@H](NC(=O)[C@H](Cc1ccccc1)NC(=O)c1c(F)cccc1F)B(O)O", "note": "[NIC-102, ((R)-1-((S)-2-(2,6-difluorobenzamido)-3-phenylpropanamido)-3-methylbutyl)boronic acid]", "values": [{"measurement": "effect on AIM2 inflammasome", "setting": "[5]", "result": "no effect"}, {"measurement": "effect on NLRC4 inflammasome", "setting": "[6]", "result": "no effect"}, {"measurement": "effect on NLRP3 inflammasome activation", "setting": "[7]", "result": "specifically prevents"}]}
{"compound": "CC(=O)c1ccc2c(c1)[C@H](NC(=O)c1ccc(F)c(Cl)c1)[C@H](O)C(C)(C)O2", "note": "[tonabersat, N-[(3S,4S)-6-acetyl-3-hydroxy-2,2-dimethyl-3,4-dihydrochromen-4-yl]-3-chloro-4-fluorobenzamide]", "values": [{"measurement": "half-life, effect of fed conditions", "setting": "[8]; fed vs fasted", "result": "not affected"}, {"measurement": "rate of drug absorption in the presence of food", "setting": "[8]; fed vs fasted", "result": "increased"}, {"measurement": "total exposure (extent of absorption), effect of food administration", "setting": "[8]; fed vs fasted", "result": "not affected"}, {"measurement": "AUC(0-inf)", "setting": "[8]; single dose 320 mg fasted", "result": 285, "unit": "µg·h/mL"}, {"measurement": "AUC(0-inf)", "setting": "[8]; single dose 320 mg fed", "result": 296, "unit": "µg·h/mL"}, {"measurement": "half-life", "setting": "[8]; after multiple dosing, Day 14", "result": "37.5 to 41.6", "unit": "h"}, {"measurement": "half-life", "setting": "[8]; after single dosing", "result": "28.9 to 37.8", "unit": "h"}, {"measurement": "Tmax", "setting": "[8]; single dose 240 mg, fasted", "result": 16, "unit": "h"}, {"measurement": "Tmax", "setting": "[8]; single dose 320 mg, fasted", "result": 10.5, "unit": "h"}, {"measurement": "Tmax", "setting": "[8]; single or multiple dosing 240 mg to 400 mg, fed (light, medium or fed)", "result": "3 to 4", "unit": "h"}, {"measurement": "accumulation of Cmax and AUC", "setting": "[8]; multiple dosing 13 to 14 consecutive days, Days 13 or 14 compared to Day 1", "result": "approximately 3 fold"}, {"measurement": "Cmax and AUC increase with increasing dose", "setting": "[8]; single and multiple dosing, across the dose range studied", "result": "dose-proportional"}, {"measurement": "dose proportionality of pharmacokinetics (dose-normalized Cmax and AUC(0-t))", "setting": "[9]; between 40 and 80 mg once daily, single or multiple doses", "result": "approximately dose proportional"}, {"measurement": "half-life", "setting": "[9]; oral, read-out: elimination half-life", "result": "24 to 36", "unit": "h"}, {"measurement": "half-life", "setting": "[9]; oral, read-out: mean half-life (converted)", "result": "~25", "unit": "h"}, {"measurement": "half-life", "setting": "[9]; po, single and repeat oral dosing, read-out: terminal elimination phase T1/2", "result": "24 to 33", "unit": "h"}, {"measurement": "time tonabersat generally quantifiable in the plasma post-dose", "setting": "[9]; single and repeat oral dosing", "result": "at least 96 hours"}, {"measurement": "time- or dose-related changes in systemic exposure", "setting": "[9]; single and repeat oral dosing", "result": "no evidence"}]}
